From US8138206B2, “Piperidine derivative” (MSD. K.K., priority 2005, dated 2012) come the findings set out here.

The target in data set [1] is T1, human histamine-H3 receptor (Homo sapiens, UniProt Q9Y5N1).
T1 construct: expressed in transfected cells; host or cells: HEK293 and CHO-K1 (membrane specimen)
Description: Histamine analogue-binding inhibition test. The following applies: 50% inhibitory concentration to specific [3H]N-α-methylhistamine binding; membrane specimen of cells expressing histamine-H3 receptor; 25° C., 2 hours. The source says: A cDNA sequence coding for a human histamine-H3 receptor (see WO00/39164) was cloned with expression vectors pCR2.1, pEF1x (by Invitrogen) and pCI-neo (by Promega). The resulting expression vector was transfected into host cells, HEK293 and CHO-K1 (American Type Culture Collection), according to a cationic lipid process [see Proceedings of the National Academy of Sciences of the United States of America, Vol., 84, p. 7413 (1987)] to obtain histamine-H3 receptor expression cells.
A membrane specimen prepared from the cells having expressed a histamine-H3 receptor was incubated in an assay buffer (50 mM Tris buffer, pH 7.4) along with a test compound and 20,000 cpm [^3H]N-α-methylhistamine (by NEN) therein, at 25° C. for 2 hours, and then filtered through a glass filter GF/C. After washed with 50 mM Tris buffer (pH 7.4), the radioactivity on the glass filter was determined. The non-specific binding was determined in the presence of 10 μM thioperamide (by SIGAM), and the 50% inhibitory concentration (IC50) of the test compound to the specific N-alpha-methylhistamine binding was calculated [Molecular Pharmacology, Vol. 55, p. 1101 (1999)].

Data set [2] addresses T2, histamine-H3 receptor (Rattus norvegicus, UniProt Q9QYN8).
T2 construct: from tissue; host or cells: living male SD rat (brain, third ventricle administration of the agonist)
Description: Test for antagonistic effect to water-drinking action induced by histamine-H3 receptor selective agonist, R-α-methylhistamine. In kind it is in vivo. Conditions: male SD rat; 30 mg/kg orally 2 hours before R-α-methylhistamine; water drunk for 1 hour. As to the method: Under anesthesia with ketamine xylazine (74 and 11 mg/kg intraabdominal single administration), a brain stereotaxic device was set in the third ventricle of a male SD rat (7 to 10-week age, […]), and a chronic guide cannula (26 gauge, length 11 mm) was inserted into it and fixed with a dental resin. The position of the tip of the guide cannula is at 2.2 mm after the bregrna on the midline, and at a depth of 8 mm from the surface of the skull. After a restoration term of about 1 week, R-α-methylhistamine (0.3 μg/l μL/head, 30% propylene glycol liquid) was administered into the third ventricle. A test compound (compound of Example 3-8) suspended in an aqueous 0.5% methyl cellulose solution was orally administered to the rat before 2 hours before the R-α-methylhistamine administration; and after the R-α-methylhistamine administration, the amount of water drunk by the rat for 1 hour was measured.

Data set [3] can be described thus: Test for brain/cerebrospinal fluid transition. In kind it is in vivo. The following applies: SD male rat, 2 hours after the oral administration (10 mg/kg). The source says: A test compound (compound of Example 3-8) was orally or intravenously administered to an SD male rat (7 to 10-week age, 200 to 400 g), and under anesthesia with ether for a predetermined period of time, the whole blood was collected from it through the abdominal aorta thereof using a heparin-processed syringe. Next, the head skin was cut, and a dental 30 G needle was stuck into the cervical spine to run through the subarachnoid cavity. Via a tube connected to the dental 30 G needle, from 50 to 100 μl of the cerebrospinal fluid was collected in a 1-mL syringe, and then the brain was taken out. The blood sample was centrifuged (4° C., 6000 revolutions, 10 minutes), and the resulting plasma was stirred with ethanol (containing an internal standard substance) in an amount of three times thereof added to it. The brain sample was homogenized with 2 mL of water added thereto; and a part of it was taken out and stirred with ethanol (containing an internal standard substance) in an amount of three times thereof added to it. The cerebrospinal fluid was stirred with ethanol (containing an internal standard substance) in an amount of three times thereof added to it. The above samples were left at −20° C. for 20 minutes, then centrifuged (4° C., 12,000 g, 10 minutes), and the supernatant was analyzed through LC/MS/MS. According to a relative calibration curve method, the compound concentration in the plasma, in the brain and in the cerebrospinal fluid was determined. As a result, the test compound concentration in the brain was 0.99 nmol/g, that in the cerebrospinal fluid was 0.074 μM and that in the plasma was 0.6 μM, after 2 hours after the oral administration (10 mg/kg).

Structures are written as SMILES. Structures can show the parent of a compound that is named as a salt. Where two headings read alike, the source gives them in different places.

T1 sequence (Q9Y5N1 whole entry): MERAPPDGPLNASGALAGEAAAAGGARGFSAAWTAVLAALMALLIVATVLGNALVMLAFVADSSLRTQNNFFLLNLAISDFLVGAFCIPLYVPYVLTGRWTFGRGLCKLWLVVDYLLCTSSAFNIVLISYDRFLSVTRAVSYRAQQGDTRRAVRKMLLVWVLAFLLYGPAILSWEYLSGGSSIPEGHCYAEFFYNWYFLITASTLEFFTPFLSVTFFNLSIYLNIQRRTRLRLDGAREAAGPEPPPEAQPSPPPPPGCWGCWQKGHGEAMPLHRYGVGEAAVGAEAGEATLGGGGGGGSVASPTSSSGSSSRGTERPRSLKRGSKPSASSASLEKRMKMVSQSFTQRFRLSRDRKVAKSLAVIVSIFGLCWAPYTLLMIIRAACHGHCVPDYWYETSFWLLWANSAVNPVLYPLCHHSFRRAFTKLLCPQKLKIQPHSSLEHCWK
T2 sequence (Q9QYN8 whole entry): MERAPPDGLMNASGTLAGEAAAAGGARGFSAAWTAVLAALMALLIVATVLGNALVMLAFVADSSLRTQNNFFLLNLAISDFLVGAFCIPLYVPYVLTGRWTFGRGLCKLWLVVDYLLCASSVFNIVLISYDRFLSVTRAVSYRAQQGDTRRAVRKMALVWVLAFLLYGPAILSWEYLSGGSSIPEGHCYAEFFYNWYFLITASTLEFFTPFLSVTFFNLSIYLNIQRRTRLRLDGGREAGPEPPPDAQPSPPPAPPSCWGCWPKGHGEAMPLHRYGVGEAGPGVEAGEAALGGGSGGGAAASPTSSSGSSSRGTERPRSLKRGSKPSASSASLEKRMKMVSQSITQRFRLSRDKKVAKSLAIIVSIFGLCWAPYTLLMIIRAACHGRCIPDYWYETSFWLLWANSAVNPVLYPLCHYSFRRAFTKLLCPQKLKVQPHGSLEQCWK

What is called IC50 is the concentration that gives 50% inhibition. As for `O=C1COC2(CCN(c3ccc(OCCCN4CCCCC4)cc3)CC2)CN1c1ccccc1` [Example 3-8, 4-phenyl-9-[4-(3-piperidin-1-ylpropoxy)phenyl]-1-oxa-4,9-diazaspiro[5,5]undecan-3-one], the IC50 in data set [1] is 4.2 nM. Besides, the “increase in the water drinking induced by the administration of R-α-methylhistamine in the third ventricle” value in data set [2] was “significantly inhibited”. In addition, the “test compound concentration in the brain” value in data set [3] amounted to 0.99 nmol/g. Further, the concentration at 2 h in data set [3] (cerebrospinal fluid, read-out: test compound concentration in the cerebrospinal fluid) turned out to be 74 nM; in data set [3] (plasma, read-out: test compound concentration in the plasma), 600 nM.
On to `COc1ccc(N2CC3(CCN(c4ccc(OC5CCN(C6CCC6)CC5)cc4)CC3)OC2=O)cn1` [Example 3-168, 8-{4-[(1-cyclobutylpiperidin-4-yl)oxy]phenyl}-3-(6-methoxypyridin-3-yl)-1-oxa-3,8-diazaspiro[4,5]decan-2-one], for which, in data set [1], the IC50 is 0.09 nM.
Still for that read-out and setting: with `C[C@@H]1CCCN1CCCOc1ccc(N2CCC3(CC2)CN(c2ccc(S(C)(=O)=O)cc2)C(=O)CO3)cc1` [Example 3-79, 9-(4-{3-[(2R)-2-methylpyrrolidin-1-yl]propoxy}phenyl)-4-[4-(methylsulfonyl)phenyl]-1-oxa-4,9-diazaspiro[5,5]undecan-3-one] the figure was 0.19 nM; with `CCN1CC2(CCN(c3ccc(OCCCN4CCC[C@H]4C)cc3)CC2)OC1=O` [Example 3-96, 3-ethyl-8-(4-{3-[(2R)-2-methylpyrrolidin-1-yl]propoxy}phenyl)-1-oxa-3,8-diazaspiro[4,5]decan-2-one], 0.41 nM.
Still for that read-out and setting: the result for `C[C@H]1CCCN(CCCOc2ccc(N3CCC4(CC3)CN(C3CCCC3)C(=O)CO4)cc2)C1` [Example 4-17, 4-cyclopentyl-9-(4-{3-[(3S)-3-methylpiperidin-1-yl]propoxy}phenyl)-1-oxa-4,9-diazaspiro[5,5]undecan-3-one] reads 1.2 nM; that for `COc1ccc(C2(O)CCN(c3ccc(OCCCN4CCCCC4)cc3)CC2)cc1` [Example 2-6, 4-(4-methoxyphenyl)-1-[4-(3-piperidin-1-ylpropoxy)phenyl]piperidin-4-ol trifluoroacetate], 3 nM.
Still for that read-out and setting: with `COc1ncc(N2CC3(CCN(c4ccc(OCCCN5CCCCC5)cc4)CC3)OCC2=O)cn1` [Example 3-15, 4-(2-methoxypyrimidin-5-yl)-9-[4-(3-piperidin-1-ylpropoxy)phenyl]-1-oxa-4,9-diazaspiro[5,5]undecan-3-one] the figure was 0.22 nM.
Turning to `O=C1COC2(CCN(c3ccc(OC4CCN(C5CCC5)CC4)nc3)CC2)CN1c1cccnc1` [Example 3-150, 9-{6-[(1-cyclobutylpiperidin-4-yl)oxy]pyridin-3-yl}-4-pyridin-3-yl-1-oxa-4,9-diazaspiro[5,5]undecan-3-one], in data set [1], the half-inhibitory concentration (IC50) came to 0.66 nM.
Same read-out and setting: with `C[C@H]1CCCN1CCCOc1ccc(N2CCC3(CC2)CN(c2cnn(C)c2)C(=O)CO3)cc1` [Example 3-95, 4-(1-methyl-1H-pyrazol-4-yl)-9-(4-{3-[(2S)-2-methylpyrrolidin-1-yl]propoxy}phenyl)-1-oxa-4,9-diazaspiro[5,5]undecan-3-one] the figure was 1.2 nM; with `O=C1OC2(CCN(c3ccc(OCCCN4CCCCC4)cc3)CC2)CN1c1ccncc1` [Example 3-42, 8-[4-(3-piperidin-1-ylpropoxy)phenyl]-3-(pyridin-4-yl)-1-oxa-3,8-diazaspiro[4,5]decan-2-one], 0.94 nM; with `COc1ccc(N2CC3(CCN(c4ccc(OC5CCN(C6CCC6)CC5)cc4)CC3)OCC2=O)cc1` [Example 3-107, 9-{4-[(1-cyclobutylpiperidin-4-yl)oxy]phenyl}-4-(4-methoxyphenyl)-1-oxa-4,9-diazaspiro[5,5]undecan-3-one], 0.18 nM.
The same measure, in the same setting: with `CC(C)N1CCC(Oc2ccc(N3CCC4(CC3)CN(c3cnccn3)C(=O)CO4)cc2)CC1` [Example 3-138, 9-{4-[(1-isopropylpiperidin-4-yl)oxy]phenyl}-4-pyrazin-2-yl-1-oxa-4,9-diazaspiro[5,5]undecan-3-one] the figure was 1.08 nM.
